In paper PMC7985445, “Characterization of Plasmodium falciparum Pantothenate Kinase and Identification of Its Inhibitors From Natural Products” (Frontiers in Cellular and Infection Microbiology, 2021):
Where two headings read alike, the source gives them in different places.

Legend:
PfPanK1 = target: T1, PfPanK1 (Plasmodium falciparum, UniProt Q8ILP4); assay: Screening of natural compounds for PfPanK inhibitors and IC50 determination (recombinant enzyme, ADP Hunter Plus); format: biochemical; conditions: for IC50: recombinant PfPanK1, mean ± SEM
T1 sequence (Q8ILP4 1-519): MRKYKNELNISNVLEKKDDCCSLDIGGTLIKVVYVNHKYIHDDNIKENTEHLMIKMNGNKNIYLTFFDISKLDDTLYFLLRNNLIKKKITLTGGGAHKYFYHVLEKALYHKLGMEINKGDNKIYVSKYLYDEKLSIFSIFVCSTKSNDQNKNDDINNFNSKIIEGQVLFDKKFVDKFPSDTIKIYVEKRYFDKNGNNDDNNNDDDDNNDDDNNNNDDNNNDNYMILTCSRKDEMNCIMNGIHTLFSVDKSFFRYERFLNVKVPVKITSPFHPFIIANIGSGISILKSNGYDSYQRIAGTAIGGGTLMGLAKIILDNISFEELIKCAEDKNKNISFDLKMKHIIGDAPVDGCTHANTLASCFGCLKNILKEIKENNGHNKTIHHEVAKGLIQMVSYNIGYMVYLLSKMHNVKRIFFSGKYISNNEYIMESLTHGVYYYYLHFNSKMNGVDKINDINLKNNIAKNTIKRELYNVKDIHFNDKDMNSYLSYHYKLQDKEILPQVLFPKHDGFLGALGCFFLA
Method: We screened 247 compounds from the Kitasato Natural Products Library ([Mori et al., 2015]; [Nurkanto et al., 2018]) against PfPanK recombinant enzyme. Compounds were dissolved in 50% DMSO at a final concentration of 1 mg/ml.

various human cell lines = tested on: various human cell lines; parameters: method as in Koizumi et al., 2009; conditions: ref Koizumi et al., 2009; cited from earlier work
[1] = tested on: P. falciparum K1 and FCR3 strain; conditions: cited from earlier work
[2] = tested on: Plasmodium falciparum sensitive strain 3D7; assay: P. falciparum asexual blood stage growth, diaphorase-coupled LDH assay; format: cell-based; conditions: 3D7, 72 h incubation, mean ± SEM, read-out: IC50 P. falciparum erythrocytic stages
Method: Before using, parasite culture was synchronized with 5% (w/v) d-sorbitol, as previously described ([Lambros and Vanderberg, 1979]). Ring stage 0.3% parasitemia (25 µl/well) were placed in a 384-well plate. Serial dilutions (50, 25, 12.5, 6.3, 3.1, 1.6, 0.8, and 0.4 μM) of each compound were used for calculating IC50. As the negative growth control, 50 µM of Mefloquine and 20 µM of Atovaquone were used. After 72 h of incubation, parasite growth was determined by diaphorase-coupled lactate dehydrogenase (LDH) assay, as previously described ([Hartuti et al., 2018]). Each well’s absorbance was measured at 650 nm using SpectraMax Paradigm®Multi-Mode microplate reader (Molecular Devices, San Jose, CA, USA). The IC50 values were analyzed and calculated with GraphPad PRISM 8.0 (San Diego, California USA).

Row | Compound | inhibition (PfPanK1; 2 h, primary screening, 37°C) [%] | IC50 (PfPanK1) [nM] | inhibition (PfPanK1; primary screening, 37°C, 2 h) [%] | further results
1 | COc1c2c(c(O)c3c(=O)c4c(oc13)[C@@H](O)CC[C@@H]4O)-c1c3c(c4cc(C)n(C)c(=O)c4c1O)OCO[C@H]3C2 [Simaomicin α] | 76.9 | 57600 ± 4800 | – | EC50 (various human cell lines): 0.3 to 19 nM; IC50 ([1]; FCR3 strain, ref Ui et al., 2007, read-out: IC50 P. falciparum erythrocytic stages): 0.018 nM; IC50 ([1]; K1 strain, ref Ui et al., 2007, read-out: IC50 P. falciparum erythrocytic stages): 0.083 nM
2 | OC[C@H]1O[C@@H](Oc2ccc(/C=C/c3cc(O)c4c(c3)O[C@H](c3ccc(O)cc3)[C@H]4c3cc(O)cc(O)c3)cc2)[C@H](O)[C@@H](O)[C@@H]1O [Gnemonoside D] | – | 57500 ± 3600 | 85 | IC50 [2]: 1900 ± 600 nM
3 | CS[C@H]1SC[C@H]2C(=O)N(C)[C@@H](C(C)C)C(=O)OC[C@@H](NC(=O)c3cnc4ccccc4n3)C(=O)N[C@@H](C)C(=O)N(C)[C@@H]1C(=O)N(C)[C@@H](C(C)C)C(=O)OC[C@@H](NC(=O)c1cnc3ccccc3n1)C(=O)N[C@@H](C)C(=O)N2C [Echinomycin] | 47.1 | – | – | –
4 | Gramicidin NF | – | – | – | PfPanK1 Inhibition (%) (PfPanK1; primary screening, compound at 50 µM final concentration (methods: 50 µg/ml), 37°C, 2 h): 45.5%
5 | CON1C(=O)[C@H]2NC(=O)[C@]13Oc1cc(O)c(Cl)cc1[C@@H]3SS2 [Aspirochlorine] | 49.7 | – | – | –
6 | CC(=O)Oc1cccc2c(=O)c3c4c(c(=[N+]=[N-])c=3c(=O)c12)C(OC(C)=O)C(C)(OC(C)=O)C(OC(C)=O)C4OC(C)=O (stereo not shown) [Diacetylkinamycin C] | – | 36200 ± 4700 | 96.1 | IC50 ([1]; FCR3 strain, ref Shimizu el al., 2019, unpublished, read-out: IC50 P. falciparum erythrocytic stages): 1100 nM; IC50 ([1]; K1 strain, ref Shimizu el al., 2019, unpublished, read-out: IC50 P. falciparum erythrocytic stages): 2200 nM; IC50 ([1]; range over drug-resistant K1 and drug-sensitive FCR3 strain, ref Shimizu et al., 2019, unpublished, read-out: IC50 against P. falciparum): 1100 to 2200 nM
